The values below come from patent US6638973B2, “Taxane formulations” (FSU Research Foundation, Inc., priority 2000, dated 2003).

pIC50: −log10 of the molar value. A value given as a limit tells only on which side of the number the result lay.

The subject of the first experiment is HCT116 cells. As to the kind of experiment: In vitro cytotoxicity measured by the cell colony formation assay. Particulars: HCT116 cells, 72 h drug incubation, colonies counted after 7 days; ID50 = drug concentration producing 50% inhibition of colony formation; read-out: IN VITRO ID 50 (nm) HCT116. In kind it is cell-based. A digest of the protocol:
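Colony-forming survival was scored 7 days after a 72 h, 37 °C compound exposure followed by washout into fresh medium.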
`CC(=O)O[C@@]12CO[C@@H]1C[C@H](OC(=O)Nc1ccccc1)[C@@]1(C)C(=O)[C@H](O)C3=C(C)[C@@H](OC(=O)[C@H](O)[C@@H](NC(=O)C=C(C)C)c4ccco4)C[C@@](O)([C@@H](OC(=O)c4ccccc4)C12)C3(C)C` (stereo partly shown) [Compound 5535, N-Debenzoyl-N-isobutenyl-3′-desphenyl-3′-(2-furyl)-7-phenylcarbamoyl taxol]: the pIC50 is over 9.00.
The same measure, in the same setting: the result for `C/C=C/C(=O)N[C@@H](c1ccco1)[C@@H](O)C(=O)O[C@H]1C[C@@]2(O)[C@@H](OC(=O)c3ccccc3)C3[C@](C)(C(=O)[C@H](O)C(=C1C)C2(C)C)[C@@H](OC(=O)NCC)C[C@H]1OC[C@@]31OC(C)=O` (stereo partly shown) [Compound 5822] reads over 8.00.
The same measure, in the same setting: then `C/C=C/C(=O)N[C@@H](c1ccco1)[C@@H](O)C(=O)O[C@H]1C[C@@]2(O)[C@@H](OC(=O)c3ccccc3)C3[C@](C)(C(=O)[C@H](O)C(=C1C)C2(C)C)[C@@H](OC(=O)Nc1ccccc1)C[C@H]1OC[C@@]31OC(C)=O` (stereo partly shown) [Compound 5757], with over 8.00.

Staying with this experiment, now noted: HCT116 cells, 72 h incubation with drug, colonies counted after 7 days; ID50 = drug concentration producing 50% inhibition of colony formation; read-out: IN VITRO ID 50 (nm) HCT116.
Take `CCOC(=O)O[C@H]1C[C@H]2OC[C@@]2(OC(C)=O)C2[C@H](OC(=O)c3ccccc3)[C@]3(O)C[C@H](OC(=O)[C@H](O)[C@@H](NC(=O)C=C(C)C)c4ccco4)C(C)=C([C@@H](O)C(=O)[C@@]21C)C3(C)C` (stereo partly shown) [Compound 6151]: the pIC50 is over 9.00.
Still for that read-out and setting: the result for `COC(=O)O[C@H]1C[C@H]2OC[C@@]2(OC(C)=O)C2[C@H](OC(=O)c3ccccc3)[C@]3(O)C[C@H](OC(=O)[C@H](O)[C@@H](NC(=O)OC(C)(C)C)c4ccoc4)C(C)=C([C@@H](O)C(=O)[C@@]21C)C3(C)C` (stereo partly shown) [Compound 4434] reads over 9.00.
The same measure, in the same setting: the result for `C/C=C/C(=O)N[C@@H](c1ccsc1)[C@@H](O)C(=O)O[C@H]1C[C@@]2(O)[C@@H](OC(=O)c3ccccc3)C3[C@](C)(C(=O)[C@H](O)C(=C1C)C2(C)C)[C@@H](OC(=O)OCC)C[C@H]1OC[C@@]31OC(C)=O` (stereo partly shown) [Compound 4999] reads over 9.00.
Still for that read-out and setting: the result for `COC(=O)O[C@H]1C[C@H]2OC[C@@]2(OC(C)=O)C2[C@H](OC(=O)c3ccccc3)[C@]3(O)C[C@H](OC(=O)[C@H](O)[C@@H](NC(=O)OCC(C)C)c4ccsc4)C(C)=C([C@@H](O)C(=O)[C@@]21C)C3(C)C` (stereo partly shown) [Compound 4674] reads over 9.00; that for `CCC(C)(C)OC(=O)N[C@@H](c1ccco1)[C@@H](O)C(=O)O[C@H]1C[C@@]2(O)[C@@H](OC(=O)c3ccccc3)C3[C@](C)(C(=O)[C@H](O)C(=C1C)C2(C)C)[C@@H](OC(=O)OCc1ccccc1)C[C@H]1OC[C@@]31OC(C)=O` (stereo partly shown) [Compound 6246], over 9.00; that for `CCOC(=O)O[C@H]1C(=O)[C@@]2(C)C([C@H](OC(=O)c3ccccc3)[C@]3(O)C[C@H](OC(=O)[C@H](O)[C@@H](NC(=O)OCC(C)C)c4ccsc4)C(C)=C1C3(C)C)[C@]1(OC(C)=O)CO[C@@H]1C[C@@H]2O` (stereo partly shown) [Compound 4924], over 8.00.
Turning to `COC(=O)O[C@H]1C(=O)[C@@]2(C)C([C@H](OC(=O)c3ccccc3)[C@]3(O)C[C@H](OC(=O)[C@H](O)[C@@H](NC(=O)OC(C)(C)C)c4ccncc4)C(C)=C1C3(C)C)[C@]1(OC(C)=O)CO[C@@H]1C[C@@H]2O` (stereo partly shown) [Compound 2020], the pIC50 is over 9.00.
In the case of `COC(=O)O[C@H]1C[C@H]2OC[C@@]2(OC(C)=O)C2[C@H](OC(=O)c3ccccc3)[C@]3(O)C[C@H](OC(=O)[C@H](O)[C@@H](NC(=O)c4ccccc4)c4cccs4)C(C)=C([C@@H](O)C(=O)[C@@]21C)C3(C)C` (stereo partly shown) [Compound 4411], the pIC50 is over 9.00.
Regarding `CCOC(=O)O[C@H]1C(=O)[C@@]2(C)C([C@H](OC(=O)c3ccccc3)[C@]3(O)C[C@H](OC(=O)[C@H](O)[C@@H](NC(=O)OCC(C)C)c4cccs4)C(C)=C1C3(C)C)[C@]1(OC(C)=O)CO[C@@H]1C[C@@H]2O` (stereo partly shown) [Compound 3003], the pIC50 is over 8.00.
On the same count and under the same terms, then `CCOC(=O)O[C@H]1C(=O)[C@@]2(C)C([C@H](OC(=O)c3ccccc3)[C@]3(O)C[C@H](OC(=O)[C@H](O)[C@@H](NC(=O)OC(C)(C)C)c4ccc([N+](=O)[O-])cc4)C(C)=C1C3(C)C)[C@]1(OC(C)=O)CO[C@@H]1C[C@@H]2O` (stereo partly shown) [Compound 1866], with over 9.00.

Still in this experiment, the particulars now being: HCT116 colony formation; 72 h drug incubation, colonies counted after 7 days; Example 5, C-7 ester/C-10 hydroxy taxanes; read-out: IN VITRO ID 50 (nm) HCT116.
Consider `CCC(=O)O[C@H]1C[C@H]2OC[C@@]2(OC(C)=O)C2[C@H](OC(=O)c3ccccc3)[C@]3(O)C[C@H](OC(=O)[C@H](O)[C@@H](NC(=O)c4cccs4)c4cccs4)C(C)=C([C@@H](O)C(=O)[C@@]21C)C3(C)C` (stereo partly shown) [Compound 3479], for which the pIC50 is over 9.00.
Same read-out and setting: the result for `CCCC(=O)O[C@H]1C[C@H]2OC[C@@]2(OC(C)=O)C2[C@H](OC(=O)c3ccccc3)[C@]3(O)C[C@H](OC(=O)[C@H](O)[C@@H](NC(=O)c4cccs4)c4cccs4)C(C)=C([C@@H](O)C(=O)[C@@]21C)C3(C)C` (stereo partly shown) [Compound 4454] reads over 9.00.
Still for that read-out and setting: the result for `CCC(=O)O[C@H]1C[C@H]2OC[C@@]2(OC(C)=O)C2[C@H](OC(=O)c3ccccc3)[C@]3(O)C[C@H](OC(=O)[C@H](O)[C@@H](NC(=O)c4cccs4)c4ccco4)C(C)=C([C@@H](O)C(=O)[C@@]21C)C3(C)C` (stereo partly shown) [Compound 3632] reads over 9.00; that for `CCC(=O)O[C@H]1C[C@H]2OC[C@@]2(OC(C)=O)C2[C@H](OC(=O)c3ccccc3)[C@]3(O)C[C@H](OC(=O)[C@H](O)[C@@H](NC(=O)OC(C)(C)C)c4ccccc4)C(C)=C([C@@H](O)C(=O)[C@@]21C)C3(C)C` (stereo partly shown) [Compound 1458], over 8.00; that for `CCCC(=O)O[C@H]1C[C@H]2OC[C@@]2(OC(C)=O)C2[C@H](OC(=O)c3ccccc3)[C@]3(O)C[C@H](OC(=O)[C@H](O)[C@@H](NC(=O)C=C(C)C)c4cccs4)C(C)=C([C@@H](O)C(=O)[C@@]21C)C3(C)C` (stereo partly shown) [Compound 4312], over 9.00.

Still in this experiment, the particulars now being: HCT116 colony formation; 72 h drug incubation, colonies counted after 7 days; Example 10, C-10 ester/C-7 hydroxy taxanes; read-out: IN VITRO ID 50 (nm) HCT116.
Consider `C/C=C/C(=O)N[C@@H](c1cccs1)[C@@H](O)C(=O)O[C@H]1C[C@@]2(O)[C@@H](OC(=O)c3ccccc3)C3[C@](C)(C(=O)[C@H](OC(=O)CC)C(=C1C)C2(C)C)[C@@H](O)C[C@H]1OC[C@@]31OC(C)=O` (stereo partly shown) [Compound 3494], for which the pIC50 is over 9.00.
Take `CCOC(=O)N[C@@H](c1cccs1)[C@@H](O)C(=O)O[C@H]1C[C@@]2(O)[C@@H](OC(=O)c3ccccc3)C3[C@](C)(C(=O)[C@H](OC(=O)C4CC4)C(=C1C)C2(C)C)[C@@H](O)C[C@H]1OC[C@@]31OC(C)=O` (stereo partly shown) [Compound 4051]: the pIC50 is over 9.00.
Same read-out and setting: the result for `CCCC(=O)O[C@H]1C(=O)[C@@]2(C)C([C@H](OC(=O)c3ccccc3)[C@]3(O)C[C@H](OC(=O)[C@H](O)[C@@H](NC(=O)OCC(C)C)C4CC4)C(C)=C1C3(C)C)[C@]1(OC(C)=O)CO[C@@H]1C[C@@H]2O` (stereo partly shown) [Compound 4808] reads over 8.00.
The same measure, in the same setting: then `CCC(=O)O[C@H]1C(=O)[C@@]2(C)C([C@H](OC(=O)c3ccccc3)[C@]3(O)C[C@H](OC(=O)[C@H](O)[C@H](C=C(C)C)NC(=O)OC(C)(C)C)C(C)=C1C3(C)C)[C@]1(OC(C)=O)CO[C@@H]1C[C@@H]2O` (stereo partly shown) [Compound 0499], with over 9.00; and `CCOC(=O)N[C@@H](c1ccco1)[C@@H](O)C(=O)O[C@H]1C[C@@]2(O)[C@@H](OC(=O)c3ccccc3)C3[C@](C)(C(=O)[C@H](OC(=O)C4CC4)C(=C1C)C2(C)C)[C@@H](O)C[C@H]1OC[C@@]31OC(C)=O` (stereo partly shown) [Compound 3677], with over 9.00.
Still for that read-out and setting: the result for `CC(=O)OC12COC1CC(O)C1(C)C(=O)C(OC(=O)c3cccs3)C3=C(C)C(OC(=O)C(O)C(NC(=O)OC(C)(C)C)c4ccoc4)CC(O)(C(OC(=O)c4ccccc4)C21)C3(C)C` (stereo not shown) [Compound 1923] reads over 9.00; that for `CC(=O)O[C@@]12CO[C@@H]1C[C@H](O)[C@@]1(C)C(=O)[C@H](OC(=O)C3CC3)C3=C(C)[C@@H](OC(=O)[C@H](O)[C@@H](NC(=O)c4ccccc4)c4ccoc4)C[C@@](O)([C@@H](OC(=O)c4ccccc4)C12)C3(C)C` (stereo partly shown) [Compound 2826], over 9.00; that for `CC(=O)OC12COC1CC(O)C1(C)C(=O)C(OC(=O)c3cccs3)C3=C(C)C(OC(=O)C(O)C(NC(=O)OC(C)(C)C)c4ccco4)CC(O)(C(OC(=O)c4ccccc4)C21)C3(C)C` (stereo not shown) [Compound 1892], over 9.00.
For `CCC(=O)O[C@H]1C(=O)[C@@]2(C)C([C@H](OC(=O)c3ccccc3)[C@]3(O)C[C@H](OC(=O)[C@H](O)[C@@H](NC(=O)OC(C)(C)CC)c4ccco4)C(C)=C1C3(C)C)[C@]1(OC(C)=O)CO[C@@H]1C[C@@H]2O` (stereo partly shown) [Compound 6522], the pIC50 is over 9.00.
Same read-out and setting: then `CC(=O)O[C@@]12CO[C@@H]1C[C@H](O)[C@@]1(C)C(=O)[C@H](OC(=O)C(C)C)C3=C(C)[C@@H](OC(=O)[C@H](O)[C@@H](NC(=O)OC(C)(C)C)c4ccncc4)C[C@@](O)([C@@H](OC(=O)c4ccccc4)C12)C3(C)C` (stereo partly shown) [Compound 2255], with over 9.00.

Still in this experiment, the particulars now being: HCT116 colony formation; 72 h drug incubation, colonies counted after 7 days; Example 15, C-7 substituted acetate/C-10 hydroxy taxanes; read-out: IN VITRO ID 50 (nm) HCT116.
Consider `CSCC(=O)O[C@H]1C[C@H]2OC[C@@]2(OC(C)=O)C2[C@H](OC(=O)c3ccccc3)[C@]3(O)C[C@H](OC(=O)[C@H](O)[C@@H](NC(=O)OC(C)(C)C)c4ccco4)C(C)=C([C@@H](O)C(=O)[C@@]21C)C3(C)C` (stereo partly shown) [Compound 5600], for which the pIC50 was over 9.00.
On the same count and under the same terms, then `CC(=O)OCC(=O)O[C@H]1C[C@H]2OC[C@@]2(OC(C)=O)C2[C@H](OC(=O)c3ccccc3)[C@]3(O)C[C@H](OC(=O)[C@H](O)[C@@H](NC(=O)C=C(C)C)c4ccco4)C(C)=C([C@@H](O)C(=O)[C@@]21C)C3(C)C` (stereo partly shown) [Compound 5544], with over 9.00.

Staying with this experiment, now noted: HCT116 colony formation; 72 h drug incubation, colonies counted after 7 days; Example 20, C-10 substituted acetate/C-7 hydroxy taxanes; read-out: IN VITRO ID 50 (nm) HCT116.
Take `C/C=C/C(=O)N[C@@H](c1ccco1)[C@@H](O)C(=O)O[C@H]1C[C@@]2(O)[C@@H](OC(=O)c3ccccc3)C3[C@](C)(C(=O)[C@H](OC(=O)COc4ccccc4)C(=C1C)C2(C)C)[C@@H](O)C[C@H]1OC[C@@]31OC(C)=O` (stereo partly shown) [Compound 6111]: the pIC50 is over 9.00.
